Conditions: 323.15 K, Liquid, Vibrating tube method

CCCCCCC(=O)OCC(COC(=O)CCCCCC)(COC(=O)CCCCCC)COC(=O)CCCCCC [pentaerythritol tetraheptanoate]
Conditions | mass density [kg/m3]
16867 kPa | 966.6
16877 kPa | 966.8
16890 kPa | 966.9
16900 kPa | 966.7
16913 kPa | 966.7
17014 kPa | 966.8
17028 kPa | 966.8
17038 kPa | 966.9
17049 kPa | 967
17062 kPa | 966.9
17072 kPa | 966.9
17084 kPa | 966.9
17095 kPa | 966.8
17108 kPa | 966.8
17119 kPa | 967
17131 kPa | 966.9
17142 kPa | 967
17153 kPa | 966.9
17164 kPa | 967
17177 kPa | 967
17188 kPa | 966.9
17201 kPa | 966.9
17212 kPa | 967
17247 kPa | 967
17258 kPa | 966.9
17269 kPa | 967
17282 kPa | 967
17293 kPa | 967
17307 kPa | 967.1
17318 kPa | 967
17389 kPa | 967
17412 kPa | 967.1
17426 kPa | 967
17437 kPa | 967.2
17451 kPa | 967.1
17462 kPa | 967.1
17474 kPa | 967.2
17485 kPa | 967.2
17499 kPa | 967.2
17511 kPa | 967
17536 kPa | 967.2
17548 kPa | 967.2
17559 kPa | 967.3
17573 kPa | 967.2
17584 kPa | 967.3
17596 kPa | 967.2
17610 kPa | 967.2
17621 kPa | 967.1
17633 kPa | 967.2
17647 kPa | 967.2
17746 kPa | 967.4
17760 kPa | 967.3
17772 kPa | 967.3
17810 kPa | 967.3
17822 kPa | 967.2
17836 kPa | 967.4
17848 kPa | 967.3
17861 kPa | 967.3
17873 kPa | 967.3
17899 kPa | 967.4
17962 kPa | 967.4
17976 kPa | 967.5
17989 kPa | 967.4
18016 kPa | 967.4
18029 kPa | 967.5
18041 kPa | 967.5
18053 kPa | 967.5
18066 kPa | 967.5
18080 kPa | 967.5
18092 kPa | 967.4
18107 kPa | 967.5
18119 kPa | 967.5
18132 kPa | 967.6
18146 kPa | 967.5
18159 kPa | 967.5
18186 kPa | 967.6
18524 kPa | 967.9
18537 kPa | 967.8
18550 kPa | 967.9
18565 kPa | 967.6
18579 kPa | 967.8
18594 kPa | 967.7
18608 kPa | 967.8
18621 kPa | 967.8
18634 kPa | 967.9
18650 kPa | 967.8
18663 kPa | 967.8
18676 kPa | 967.8
18692 kPa | 967.9
18704 kPa | 967.9
18721 kPa | 967.9
18734 kPa | 967.9
18747 kPa | 967.9
18761 kPa | 967.9
18777 kPa | 967.8
18790 kPa | 968
18803 kPa | 968
18820 kPa | 968
18833 kPa | 967.9
18848 kPa | 968
18862 kPa | 968
18876 kPa | 968
18889 kPa | 968.1
18906 kPa | 968
18950 kPa | 968
18977 kPa | 968.1
18993 kPa | 967.9
19007 kPa | 968.1
19021 kPa | 968.1
19037 kPa | 968.1
19051 kPa | 968.2

Reference: the NIST ThermoML archive (doi:10.1021/je060271a)
